Laboratory results: publication PMC10617418, “Identification of tanshinone I as cap-dependent endonuclease inhibitor with broad-spectrum antiviral effect” (Journal of Virology, 2023)
Like-named read-outs stand apart in the source and are kept apart here.

Tests used:
SFTSV EndoN [1] = target: T1, SFTSV EndoN (Dabie bandavirus, UniProt I0DF35); assay: biochemical
HRTV = assay: microbe, parasite or virus in culture; format: cell-based; settings: Heartland virus, Vero, 36 h, read-out: EC50 against HRTV
SFTSV [2] = settings: mouse, in vivo
LCMV [3] = assay: organism not typed; format: cell-based, lymphatic choriomeningitis virus; settings: BHK-21, read-out: EC50 against LCMV
SFTSV [4] = test system: SFTSV
LCMV EndoN = target: T2, LCMV EndoN (Lymphocytic choriomeningitis virus, UniProt P14240); assay: biochemical
T2 sequence (P14240 26-287 limits assumed): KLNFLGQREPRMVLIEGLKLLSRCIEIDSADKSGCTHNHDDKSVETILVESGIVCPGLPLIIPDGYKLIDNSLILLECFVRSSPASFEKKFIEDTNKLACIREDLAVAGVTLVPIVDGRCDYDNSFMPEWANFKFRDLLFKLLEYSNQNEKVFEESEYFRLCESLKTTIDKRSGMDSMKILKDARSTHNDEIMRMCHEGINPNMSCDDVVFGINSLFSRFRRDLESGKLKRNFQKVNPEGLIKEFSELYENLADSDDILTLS

SFTSV [5] = assay: microbe, parasite or virus in culture; settings: Severe fever with thrombocytopenia syndrome virus, Vero, 36 h, read-out: EC50 (Vero) against SFTSV
GTV = assay: microbe, parasite or virus in culture; format: cell-based; settings: Guertu virus, Vero, 36 h, read-out: EC50 against GTV
IAV (H1N1) [6] = settings: mouse, in vivo
SFTSV EndoN [7] = target: T1, SFTSV EndoN; assay: biochemical; format: binding
IAV (H1N1) [8] = assay: microbe, parasite or virus in culture; format: cell-based; settings: Influenza A virus, H1N1, MDCK, read-out: EC50 against IAV (H1N1)
SFTSV [9] = format: cell-based, severe fever with thrombocytopenia syndrome virus
SFTSV EndoN [10] = target: T1, SFTSV EndoN; format: biochemical
SFTSV [11] = assay: microbe, parasite or virus in culture; format: cell-based; settings: Severe fever with thrombocytopenia syndrome virus, Huh-7, 36 h, read-out: EC50 (Huh 7) against SFTSV
LCMV [12] = settings: mouse, in vivo
water solubility = format: physicochemical
[13] = cytotoxicity by CCK8 assay; settings: African green monkey, Vero cells
[14] = pharmacokinetic analysis in rats; settings: 20 mg/kg
[15] = compared with tanshinone IIA; cited from earlier work
[16] = male, Sprague-Dawley, rat, plasma, ip
[17] = male, Sprague-Dawley, rat, plasma, iv

T1 sequence (I0DF35 20-221 limits assumed): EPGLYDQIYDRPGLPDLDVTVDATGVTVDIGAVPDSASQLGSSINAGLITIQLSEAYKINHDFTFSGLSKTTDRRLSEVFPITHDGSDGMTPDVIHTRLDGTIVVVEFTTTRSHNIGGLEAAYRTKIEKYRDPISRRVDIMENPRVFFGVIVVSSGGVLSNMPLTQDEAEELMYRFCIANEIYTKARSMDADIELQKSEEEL

| SMILES | EC50 (HRTV) [nM] | EC50 (LCMV [3]) [nM] | SI (CC50/EC50) (SFTSV [4]) | EC50 (SFTSV [5]) [nM] | EC50 (GTV) [nM] | EC50 (IAV (H1N1) [8]) [nM] | stage of action in time-of-addition experiment (SFTSV [9]) | inhibition of cleavage of FAM-labeled ssRNA substrate (SFTSV EndoN [10]) | EC50 (SFTSV [11]) [nM] | CC50 at 36 h [13] [µM] | also measured |
| --- | --- | --- | --- | --- | --- | --- | --- | --- | --- | --- | --- |
| Cc1coc2c1C(=O)C(=O)c1c-2ccc2c(C)cccc12 [Tanshinone I, tanshinone I] | 320 | 2920 | 121 | 2030 | 450 | 1040 | acted at the post-entry stage | significantly inhibited the cleavage | 440 | 245 | EC50 (SFTSV EndoN [1]): 308 µM; body weight change (SFTSV [2]): less than 10%; EC50 (LCMV EndoN): 365 µM; influence on body weight (IAV (H1N1) [6]): negligible influence; lung pathology (H&E staining) (IAV (H1N1) [6]): significant pathological remission; viral copies in the lung (IAV (H1N1) [6]): lowered the viral copies in the lung; proinflammatory factors in the lung (IAV (H1N1) [6]; iv): downregulated; Kd (SFTSV EndoN [7]): 680 µM; inhibition of SFTSV in time-of-addition experiment by IFA (SFTSV [9]): significant inhibitory activities under the post-entry and full-time treatment patterns; influence on body weight (LCMV [12]): negligible influence; viral copies and proinflammatory factors in the liver (LCMV [12]; iv): reduced; water solubility (water solubility): poor water solubility; bioavailability ([14]; i.g. or i.p., SD rats): poor; AUC(0-t) [14, 16]: 265 ng·h/mL; Cmax [14, 16]: 12.8 ng/mL; Tmax [14, 16]: 2.5 h; half-life [14, 16]: 2100 min; AUC(0-t) [14, 17]: 412 ng·h/mL; Cmax [14, 17]: 284 ng/mL; half-life [14, 17]: 966 min |
| CC(C)=CCc1cc2c(=O)cc(-c3ccc(O)cc3)oc2cc1O [Licoflavone A, licoflavone A] | – | – | 23 | 2800 | – | – | acted at both the entry and post-entry stages | – | 2500 | 63.8 | – |
| Cc1c(S(=O)(=O)[O-])oc2c1C(=O)C(=O)c1c-2ccc2c1CCCC2(C)C.[Na+] [tanshinone IIA sulfonate sodium] | – | – | – | – | – | – | – | – | – | – | antiviral activity against SFTSV relative to tanshinone I or IIA (SFTSV [4]): poorer antiviral activity; water solubility [15]: significantly improved water solubility |
| Cc1cc(O)c2c(c1)C(=O)c1cc(O)cc(O)c1C2=O [Emodin, emodin] | – | – | 53 | 2750 | – | – | – | – | 1070 | 145 | inhibition of SFTSV in time-of-addition experiment by IFA (SFTSV [9]): significant inhibitory activities under the post-entry and full-time treatment patterns |
| CC(C)=CCc1c(O)ccc(-c2coc3cc(O)cc(O)c3c2=O)c1O [Licoisoflavone A, licoisoflavone A] | – | – | 44 | 3800 | – | – | – | – | 1530 | 167 | – |
| NC(=O)c1nc(F)c[nH]c1=O [T-705, favipiravir, reference compound] | – | – | – | ~47000 | – | – | comparable inhibition rate under the post-infection and full-time treatment patterns but had a negligible influence on the virions or at the entry stage | – | – | – | expression of proinflammatory factors (TNF-α, IL-1β, IL-6, IL-18) in blood and spleen (SFTSV [2]): markedly decreased; toxicity in mice (body weight) within 3 days (SFTSV [2]): neither tanshinone IIA nor T-705 exhibited obvious toxicity; viral copies in blood and spleen (SFTSV [2]): effectively reduced; influence on body weight (IAV (H1N1) [6]): negligible influence; lung pathology (H&E staining) (IAV (H1N1) [6]): significant pathological remission; influence on body weight (LCMV [12]): negligible influence |
| Cc1coc2c1C(=O)C(=O)c1c-2ccc2c1CCCC2(C)C [Tanshinone IIA, tanshinone IIA] | 1640 | 4640 | 85 | 2860 | 1200 | 4020 | – | significantly inhibited the cleavage | – | 242 | EC50 (SFTSV EndoN [1]): 917 µM; expression of proinflammatory factors (TNF-α, IL-1β, IL-6, IL-18) in blood and spleen (SFTSV [2]): markedly decreased; toxicity in mice (body weight) within 3 days (SFTSV [2]): neither tanshinone IIA nor T-705 exhibited obvious toxicity; viral copies in blood and spleen (SFTSV [2]): effectively reduced; EC50 (LCMV EndoN): 597 µM; Kd (SFTSV EndoN [7]): 740 µM |
| COc1c(CC=C(C)C)c(O)cc2oc(=O)c(-c3ccc(O)cc3O)cc12 [Glycycoumarin, glycycoumarin] | – | – | 25 | 1860 | – | – | – | – | 3750 | 46.3 | – |
| O=C1c2c(O)c(=O)ccn2N([C@@H]2c3ccccc3SCc3c2ccc(F)c3F)[C@@H]2COCCN12 [Baloxavir, baloxavir, reference compound] | 1320 | 2630 | 10 | 5660 | 3740 | 1.02 | – | partially inhibited the cleavage | – | 55.2 | – |
| COc1c(/C=C/C(=O)c2ccc(O)c(CC=C(C)C)c2)ccc(O)c1O [Licochalcone D, licochalcone D] | – | – | 10 | 4000 | – | – | – | – | 4290 | 40 | – |
